This is an account of results in patent US8729082B2, “Substituted imidazoquinoxalines” (Bayer Intellectual Property GmbH, priority 2009, dated 2014).

Each structure is given as a SMILES string.

The assay addresses T1, human kinase Mps-1 (Homo sapiens, UniProt P33981).
T1 construct: N-terminally GST-tagged human full length recombinant Mps-1 kinase; purchased Invitrogen, Karslruhe, Germany PV4071
T1 sequence (P33981 1-857): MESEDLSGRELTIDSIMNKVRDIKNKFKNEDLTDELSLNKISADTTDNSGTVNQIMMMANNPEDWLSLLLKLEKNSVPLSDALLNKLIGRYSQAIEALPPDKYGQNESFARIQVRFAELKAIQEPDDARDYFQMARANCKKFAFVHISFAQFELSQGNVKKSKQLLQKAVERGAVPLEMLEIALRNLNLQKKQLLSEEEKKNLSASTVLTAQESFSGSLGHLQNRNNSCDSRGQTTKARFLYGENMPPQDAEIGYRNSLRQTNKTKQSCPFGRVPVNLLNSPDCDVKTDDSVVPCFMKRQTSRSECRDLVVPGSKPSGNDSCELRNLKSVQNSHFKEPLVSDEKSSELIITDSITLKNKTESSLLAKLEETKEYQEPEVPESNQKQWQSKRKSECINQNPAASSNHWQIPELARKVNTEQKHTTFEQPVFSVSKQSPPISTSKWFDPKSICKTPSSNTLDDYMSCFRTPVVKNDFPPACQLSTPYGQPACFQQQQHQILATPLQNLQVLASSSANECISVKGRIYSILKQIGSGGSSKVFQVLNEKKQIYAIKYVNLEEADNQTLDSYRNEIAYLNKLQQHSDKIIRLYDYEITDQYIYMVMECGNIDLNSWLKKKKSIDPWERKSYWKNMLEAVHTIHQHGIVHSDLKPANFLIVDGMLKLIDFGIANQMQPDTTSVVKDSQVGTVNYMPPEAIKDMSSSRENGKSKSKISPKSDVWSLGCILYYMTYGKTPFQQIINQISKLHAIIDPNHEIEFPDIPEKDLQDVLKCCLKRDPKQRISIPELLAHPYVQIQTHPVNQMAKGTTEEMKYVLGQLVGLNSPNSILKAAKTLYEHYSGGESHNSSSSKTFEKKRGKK
As to the kind of experiment: Mps-1 kinase assay (HTRF). It counts as biochemical. Particulars: lowATP; mean; read-out: Mps1 lowATP mean IC50. In outline: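 HTRF readout: EDTA-stopped reactions incubated 1 h with europium anti-phospho(Ser/Thr) antibody and streptavidin-XLent, emission ratio 665/620 nm after 350 nm excitation. Kinase step: compound pre-bound 15 min to ~1 nM GST-Mps-1, then 60 min at 22 °C with ATP and biotin-peptide substrate; inhibition scaled between no-inhibitor (0%) and no-enzyme (100%) controls.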
Regarding `N#Cc1ccc2c(c1)nc(NCCCO)c1ncc(-c3ccc(C(=O)NC4CC4)c(Cl)c3)n12` [Example 2-242, 2-chloro-4-{7-cyano-4-[(3-hydroxypropyl)amino]imidazo[1,2-a]quinoxalin-1-yl}-N-cyclopropylbenzamide], the concentration for half-maximal inhibition (IC50) turned out to be 3780 nM.

In the case of `CCCCNc1nc2cc(C#N)ccc2n2c(-c3ccc(C(=O)NC4CC4)c(Cl)c3)cnc12` [Example 2-243, 4-[4-(butylamino)-7-cyanoimidazo[1,2-a]quinoxalin-1-yl]-2-chloro-N-cyclopropylbenzamide], the IC50 was found to be 506 nM.

`CC(=O)NCCNc1nc2cc(C#N)ccc2n2c(-c3ccc(C(=O)NC4CC4)c(Cl)c3)cnc12` [Example 2-244, 4-(4-{[2-(acetylamino)ethyl]amino}-7-cyanoimidazo[1,2-a]quinoxalin-1-yl)-2-chloro-N-cyclopropylbenzamide]: the IC50 amounted to 8820 nM.

Consider `N#Cc1ccc2c(c1)nc(NCc1cccnc1)c1ncc(-c3ccc(C(=O)NC4CC4)c(Cl)c3)n12` [Example 2-245, 2-chloro-4-{7-cyano-4-[(pyridin-3-ylmethyl)amino]imidazo[1,2-a]quinoxalin-1-yl}-N-cyclopropylbenzamide], for which the concentration for half-maximal inhibition (IC50) amounted to 1120 nM.

Consider `N#Cc1ccc2c(c1)nc(NCc1ccncc1)c1ncc(-c3ccc(C(=O)NC4CC4)c(Cl)c3)n12` [Example 2-246, 2-chloro-4-{7-cyano-4-[(pyridin-4-ylmethyl)amino]imidazo[1,2-a]quinoxalin-1-yl}-N-cyclopropylbenzamide], for which the half-inhibitory concentration (IC50) came to 1300 nM.

For `CC(C)CNc1nc2cc(C#N)ccc2n2c(-c3ccc(C(=O)NC4CC4)c(Cl)c3)cnc12` [Example 2-247, 2-chloro-4-{7-cyano-4-[(2-methylpropyl)amino]imidazo[1,2-a]quinoxalin-1-yl}-N-cyclopropylbenzamide], the half-inhibitory concentration (IC50) came out at 339 nM.

With `N#Cc1ccc2c(c1)nc(NCCC(N)=O)c1ncc(-c3ccc(C(=O)NC4CC4)c(Cl)c3)n12` [Example 2-248, 4-{4-[(3-amino-3-oxopropyl)amino]-7-cyanoimidazo[1,2-a]quinoxalin-1-yl}-2-chloro-N-cyclopropylbenzamide], the IC50 is 5830 nM.

Regarding `COCCCNc1nc2cc(C#N)ccc2n2c(-c3ccc(C(=O)NC4CC4)c(Cl)c3)cnc12` [Example 2-249, 2-chloro-4-{7-cyano-4-[(3-methoxypropyl)amino]imidazo[1,2-a]quinoxalin-1-yl}-N-cyclopropylbenzamide], the half-maximal inhibitory concentration (IC50) turned out to be 2400 nM.

Consider `CC(C)(C)OC(=O)NCCCNc1nc2cc(C#N)ccc2n2c(-c3ccc(C(=O)NC4CC4)c(Cl)c3)cnc12` [Example 2-250, tert-butyl [3-({1-[3-chloro-4-(cyclopropylcarbamoyl)phenyl]-7-cyanoimidazo[1,2-a]quinoxalin-4-yl}amino)propyl]carbamate], for which the IC50 stood at 1460 nM.

Take `Cn1ccc(CNc2nc3cc(C#N)ccc3n3c(-c4ccc(C(=O)NC5CC5)c(Cl)c4)cnc23)n1` [Example 2-251, 2-chloro-4-(7-cyano-4-{[(1-methyl-1H-pyrazol-3-yl)methyl]amino}imidazo[1,2-a]quinoxalin-1-yl)-N-cyclopropylbenzamide]: the 50% inhibitory concentration (IC50) is 2540 nM.

For the compound `Cn1nccc1CNc1nc2cc(C#N)ccc2n2c(-c3ccc(C(=O)NC4CC4)c(Cl)c3)cnc12` [Example 2-252, 2-chloro-4-(7-cyano-4-{[(1-methyl-1H-pyrazol-5-yl)methyl]amino}imidazo[1,2-a]quinoxalin-1-yl)-N-cyclopropylbenzamide], the IC50 worked out at 852 nM.

For `Cn1cc(CNc2nc3cc(C#N)ccc3n3c(-c4ccc(C(=O)NC5CC5)c(Cl)c4)cnc23)cn1` [Example 2-253, 2-chloro-4-(7-cyano-4-{[(1-methyl-1H-pyrazol-4-yl)methyl]amino}imidazo[1,2-a]quinoxalin-1-yl)-N-cyclopropylbenzamide], the IC50 was found to be 1220 nM.

As to `N#Cc1ccc2c(c1)nc(NCC(O)CO)c1ncc(-c3ccc(C(=O)NC4CC4)c(Cl)c3)n12` (centres unmarked) [Example 2-254, 2-chloro-4-{7-cyano-4-[(2,3-dihydroxypropyl)amino]imidazo[1,2-a]quinoxalin-1-yl}-N-cyclopropylbenzamide], the IC50 worked out at 5530 nM.

As to `CC(C)CNc1nc2ccccc2n2c(-c3ccc(C(=O)Nc4cc[nH]n4)cc3)cnc12` [Example 3-1, 4-{4-[(2-methylpropyl)amino]imidazo[1,2-a]quinoxalin-1-yl}-N-(1H-pyrazol-3-yl)benzamide], the half-maximal inhibitory concentration (IC50) came to 3950 nM.

Consider `CCCNC(=O)c1ccc(-c2cnc3c(NCC(C)C)nc4ccccc4n23)cc1` [Example 3-2, 4-{4-[(2-methylpropyl)amino]imidazo[1,2-a]quinoxalin-1-yl}-N-propylbenzamide], for which the IC50 is 369 nM.

With `CCN(CC)C(=O)c1ccc(-c2cnc3c(NCC(C)C)nc4ccccc4n23)cc1` [Example 3-3, N,N-diethyl-4-{4-[(2-methylpropyl)amino]imidazo[1,2-a]quinoxalin-1-yl}benzamide], the IC50 was determined as 19700 nM.

On to `CC(C)CNc1nc2ccccc2n2c(-c3ccc(C(=O)NCCO)cc3)cnc12` [Example 3-4, N-(2-hydroxyethyl)-4-{4-[(2-methylpropyl)amino]imidazo[1,2-a]quinoxalin-1-yl}benzamide], for which the IC50 stood at 1790 nM.

In the case of `CC(C)CNc1nc2ccccc2n2c(-c3ccc(C(=O)NCCCN4CCCC4=O)cc3)cnc12` [Example 3-5, 4-{4-[(2-methylpropyl)amino]imidazo[1,2-a]quinoxalin-1-yl}-N-[3-(2-oxopyrrolidin-1-yl)propyl]benzamide], the IC50 came to 15300 nM.

With `CC(C)CNc1nc2ccccc2n2c(-c3ccc(C(=O)NC4CCN(Cc5ccccc5)CC4)cc3)cnc12` [Example 3-7, N-(1-benzylpiperidin-4-yl)-4-{4-[(2-methylpropyl)amino]imidazo[1,2-a]quinoxalin-1-yl}benzamide], the concentration for half-maximal inhibition (IC50) turned out to be 15800 nM.

For `CCNC(=O)c1ccc(-c2cnc3c(NCC(C)C)nc4ccccc4n23)cc1` [Example 3-8, N-ethyl-4-{4-[(2-methylpropyl)amino]imidazo[1,2-a]quinoxalin-1-yl}benzamide], the half-maximal inhibitory concentration (IC50) came to 134 nM.

Regarding `CC(C)CNc1nc2ccccc2n2c(-c3ccc(C(=O)Nc4ccc(S(N)(=O)=O)cc4)cc3)cnc12` [Example 3-9, 4-{4-[(2-methylpropyl)amino]imidazo[1,2-a]quinoxalin-1-yl}-N-(4-sulfamoylphenyl)benzamide], the IC50 was 6590 nM.

Consider `CC(C)CNc1nc2ccccc2n2c(-c3ccc(C(=O)Nc4cccc(C(N)=O)c4)cc3)cnc12` [Example 3-10, N-(3-carbamoylphenyl)-4-{4-[(2-methylpropyl)amino]imidazo[1,2-a]quinoxalin-1-yl}benzamide], for which the IC50 turned out to be 865 nM.

For the compound `CC(C)CNc1nc2ccccc2n2c(-c3ccc(C(=O)Nc4ccccc4C(N)=O)cc3)cnc12` [Example 3-11, N-(2-carbamoylphenyl)-4-{4-[(2-methylpropyl)amino]imidazo[1,2-a]quinoxalin-1-yl}benzamide], the half-inhibitory concentration (IC50) was 19400 nM.

Consider `CC(C)CNc1nc2ccccc2n2c(-c3ccc(C(=O)NCC(N)=O)cc3)cnc12` [Example 3-12, N-(2-amino-2-oxoethyl)-4-{4-[(2-methylpropyl)amino]imidazo[1,2-a]quinoxalin-1-yl}benzamide], for which the IC50 turned out to be 1510 nM.

With `C#CCNC(=O)c1ccc(-c2cnc3c(NCC(C)C)nc4ccccc4n23)cc1` [Example 3-13, 4-{4-[(2-methylpropyl)amino]imidazo[1,2-a]quinoxalin-1-yl}-N-(prop-2-yn-1-yl)benzamide], the 50% inhibitory concentration (IC50) was found to be 41.2 nM.

With `CC(=O)Nc1cccc(NC(=O)c2ccc(-c3cnc4c(NCC(C)C)nc5ccccc5n34)cc2)c1` [Example 3-14, N-[3-(acetylamino)phenyl]-4-{4-[(2-methylpropyl)amino]imidazo[1,2-a]quinoxalin-1-yl}benzamide], the concentration for half-maximal inhibition (IC50) amounted to 624 nM.

For the compound `CC(C)CNc1nc2ccccc2n2c(-c3ccc(C(=O)NC(C)CO)cc3)cnc12` (centres unmarked) [Example 3-15, N-(1-hydroxypropan-2-yl)-4-{4-[(2-methylpropyl)amino]imidazo[1,2-a]quinoxalin-1-yl}benzamide], the 50% inhibitory concentration (IC50) turned out to be 1090 nM.

`CC(C)CNc1nc2ccccc2n2c(-c3ccc(C(=O)NCCc4ccncc4)cc3)cnc12` [Example 3-16, 4-{4-[(2-methylpropyl)amino]imidazo[1,2-a]quinoxalin-1-yl}-N-[2-(pyridin-4-yl)ethyl]benzamide]: the half-maximal inhibitory concentration (IC50) came to 5870 nM.

`CC(C)CNc1nc2ccccc2n2c(-c3ccc(C(=O)NCCC(N)=O)cc3)cnc12` [Example 3-17, N-(3-amino-3-oxopropyl)-4-{4-[(2-methylpropyl)amino]imidazo[1,2-a]quinoxalin-1-yl}benzamide]: the half-maximal inhibitory concentration (IC50) is 7720 nM.
